From patent publication US20070224301A1, “Compounds from an extract of Artemisia and methods for treating disorders” (priority 2006, published 2007)

Columns and labels:
[1] = molecular target: T1, human recombinant ALR2 enzyme (Homo sapiens, UniProt P15121); assay: ALR2 enzyme assay (decrease in NADPH absorbance at 340 nm); assay type: biochemical; settings: for ALR2 inhibitory activity (in words, compared with quercitrin): 3.75 μg/ml where stated
T1 construct: purchased Wako Chemicals USA Inc
Procedure: Human recombinant ALR2 enzyme was purchased from Wako Chemicals USA Inc. Enzyme activity was measured at each step of purification of the extract, by monitoring the decrease in NADPH absorbance at a wavelength of 340 nm (Nishimura et al., Purification and characterization of recombinant aldose reducatse expressed in baculovirus system. Biochim. Biophys. acta. pp. 1078-1171 (1991)), using a spectrophotometer. One hundred micro liters of the reaction mixture contained 100 mM sodium phosphate buffer (pH 6.2), 0.15 mM NADPH, 10 mM DL-Glyceraldehyde and 1 mU of human recombinant ALR2 enzyme. The samples were prepared in 10% DMSO and the final concentration of the samples or the positive control quercitrin was 3.75 μg/ml. The reaction was initiated by adding the enzyme and the change in NADPH absorbance was monitored over seven minutes.

PTP-1B = molecular target: T2, PTP-1B (Homo sapiens, UniProt P18031); assay: PTP-1B activity by PNPP hydrolysis after immunoprecipitation from treated skeletal muscle cells; assay type: cell-based; settings: 20 μg/ml of media; for PTP-1B inhibitory activity (decrease of PTP-1B activity): primary skeletal muscle culture from subjects with type 2 diabetes, 16 hours
T2 construct: Cell lysate was prepared and PTP-1B was immunoprecipitated with specific antibody; endogenous in cells; host or cells: primary skeletal muscle cell culture (subjects with type 2 diabetes)
T2 sequence (P18031 1-435): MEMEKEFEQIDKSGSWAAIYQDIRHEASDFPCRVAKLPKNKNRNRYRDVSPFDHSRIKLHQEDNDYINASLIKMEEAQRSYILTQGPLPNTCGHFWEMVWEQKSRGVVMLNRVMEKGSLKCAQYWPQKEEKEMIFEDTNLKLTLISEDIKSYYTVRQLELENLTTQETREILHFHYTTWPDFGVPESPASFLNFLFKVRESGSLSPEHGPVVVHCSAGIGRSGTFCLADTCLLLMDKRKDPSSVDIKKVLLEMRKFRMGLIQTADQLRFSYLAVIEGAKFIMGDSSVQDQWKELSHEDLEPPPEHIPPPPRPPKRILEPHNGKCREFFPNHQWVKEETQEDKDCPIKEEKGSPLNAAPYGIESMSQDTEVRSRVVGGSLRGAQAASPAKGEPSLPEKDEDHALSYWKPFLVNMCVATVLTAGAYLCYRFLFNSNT
Procedure: The activity of PTP-1B was assayed by hydrolysis of p-nitrophenol phosphate (PNPP). Skeletal muscle cells were incubated overnight (16 hours) with test substance (extract, fractions or pure compounds) at 20 μg/ml of media. Cell lysate was prepared and PTP-1B was immunoprecipitated with specific antibody (Upstate Biotechnology, Lake Placid, N.Y.). The immunoprecipitate was incubated in Phosphatase Reaction Buffer (20 mmol/L HEPES, pH 7.4, 150 mmol/L NaCl, 5 mM dithiothreitol, 1 mmol/L PNPP) for 20 minutes at 37° C. The reaction was stopped with 0.2 mol/L NaOH, and the absorbance at 410 nm was measured. The reactions were run in triplicate (Moeslein et al., The CLK family kinases, CLK1 and CLK2, phosphorylate and activate the tyrosine phosphatase, PTP-1B. J Biol Chem, 274:26697-26704 (1999)).

PTP-1B mRNA = assay: Quantitative real time PCR for PTP-1B gene expression; assay type: cell-based; settings: skeletal muscle cells, 20 μg/ml of media
Procedure: Cells were incubated overnight (16 hours) with test substance (extract, fractions or pure compounds) at 20 μg/ml of media and harvested from the culture treatments at the designated time points. After extraction and quantification of RNA, quantitative real time PCR (qPCR) analysis was carried out using Taqman® one-step RT-PCR Master Mix (Applied Biosystems, Branchburg, N.J.). 20 ng of total RNA were added per 50 μl reaction with sequence-specific primers (200 nM) and Taqman® probes (200 nM) as indicated here, PTP-1B probe; 5′FAM d(AGTGATGGAGAAAGGTT)BHQ-1 3′. PTP-1B forward primer; 5′ d([…])3′ and PTP-1B reverse primer; 5′ d([…])3′. Primers and probes were designed by and purchased from Applied Biosystems. qPCR assays were carried out in triplicate on an ABI Prism 7700 sequence detection system. […] The threshold was set above the non-template control background and within the linear phase of target gene amplification to calculate the cycle number at which the transcript was detected (denoted CT). Gene expression values were calculated based on the standard curve of each target gene (RNA of control cells with two-fold serial dilutions from 200 ng to 3.125 ng) and normalized by the reference housekeeping gene β-Actin (1). Results were expressed as percentage change of control (Applied Biosystems (2001) Applied Biosystems User Bulletin Number 2, Foster City, Calif.).

PEPCK gene expression = assay: PEPCK gene inhibition assay (Dex/cAMP-induced, qPCR) in H4IIE hepatoma cells; assay type: cell-based, rat; settings: 25 μg/ml
Procedure: H4IIE hepatoma cells (ATCC CRL-1600) were plated in 24-well tissue culture plates (Greiner Bio One) and were grown to confluence in Dulbecco's modified Eagle's medium (DMEM) containing 2.5% (v/v) newborn calf serum and 2.5% (v/v) fetal calf serum. Cells were treated for 8 hours with 500 nM dexamethasone and 0.1 mM cAMP (Dex/cAMP, both Sigma) to induce PEPCK gene expression and different concentrations or volumes of each of the tested compounds, plant extract or […] of Insulin. The fractions were tested at 50 μg/ml of media and the compounds were tested at the doses of 2.5 μg/ml, 5 μg/ml and 10 μg/ml and 25 μg/ml. Three wells were allocated for each treatment as well as for a negative control (untreated cells).
Total RNA was extracted from H4IIE rat hepatoma cells using Trizol reagent (Invitrogen Inc.) following the manufacturer instructions. RNA was quantified spectro-photo-metrically by absorption measurements at 260 nm and 280 nm using the NanoDrop system (NanoDrop Technologies Inc. Delware, USA). Quality of RNA was assessed by separation in gel-electrophoresis. […]
The synthesized cDNAs were diluted 4-fold. […] The other components of the PCR reactions were 0.5 μl of 6 μM gene specific primers (synthesized by IDT Inc. USA), 12.5 μl of Brilliant SYBR green PCR master mix (2×) (Stratagene, La Jolla, Calif.) containing green jump-start Taq ready mix. […]

COc1ccc(CCC(=O)c2ccc(O)cc2O)cc1 (single isomer, unassigned) [F7-9/P3, 2′,4′-dihydroxy-4-methoxydihydrochalcone]
inhibition at 3.75 µg/mL ([1]; 3.75 μg/ml): 58.2%

O=C(/C=C/c1ccc(O)c(O)c1)OC1CC(O)(C(=O)O)CC(O)C1OC(=O)/C=C/c1ccc(O)c(O)c1 (single isomer, unassigned) [Sub-fraction 5-7, 4,5-Di-O-caffeoylquinic acid]
greater inhibition of ALR2 than that caused by quercitrin ([1]; 3.75 μg/ml): 19% | inhibition at 3.75 µg/mL ([1]; 3.75 μg/ml): 78%

O=C(/C=C/c1ccc(O)c(O)c1)OC1CC(O)(C(=O)O)CC(O)C1OC(=O)/C=C/c1ccc(O)c(O)c1 (stereo not shown) [Compound 1, 4,5-Di-O-caffeoylquinic acid]
ALR2 inhibitory activity (in words, compared with quercitrin) [1]: highest inhibitory activity

O=C(CCc1ccc(O)cc1)c1ccc(O)cc1O [Compound 2, Davidigenin]
ALR2 inhibitory activity (in words, compared with quercitrin) [1]: shows ALR2 inhibition activity

COc1ccc(CCC(=O)c2ccc(O)cc2O)cc1 [Compound 4, 2′,4′-dihydroxy-4-methoxydihydrochalcone]
PTP-1B inhibitory activity (decrease of PTP-1B activity) (PTP-1B): ≤ 26% | reduction of PTP-1B mRNA expression (PTP-1B mRNA): 29% | repression of dexamethazone/cAMP-induced PEPCK gene expression (PEPCK gene expression): more than 50% | repression of dexamethazone/cAMP-induced PEPCK gene expression (PEPCK gene expression; listed as DMDC): more than 50%

COc1ccc(C(=O)CCc2ccc(O)cc2)c(O)c1 [Compound 5, 2′,4-dihydroxy-4′-methoxydihydrochalcone]
PTP-1B inhibitory activity (decrease of PTP-1B activity) (PTP-1B): ≤ 36%

COc1cc(O)c2c(c1)O[C@H](c1ccc(O)cc1)CC2=O [Compound 6, Sakuranetin]
PTP-1B inhibitory activity (decrease of PTP-1B activity) (PTP-1B): ≤ 50% | PTP-1B inhibitory activity (in words) (PTP-1B; skeletal muscle cells): decrease PTP-1B activity

C[C@@H]1O[C@@H](Oc2c(-c3ccc(O)c(O)c3)oc3cc(O)cc(O)c3c2=O)[C@H](O)[C@H](O)[C@H]1O [quercitrin, reference compound]
inhibition at 3.75 µg/mL ([1]; 3.75 μg/ml): 54%
